Results from publication PMC8911723, “Design, Synthesis, and Cytotoxic Activity of Novel Natural Arylsulfonamide-Inspired Molecules” (Molecules, 2022).
In brackets after ≈: the same amount, converted by molar mass.

Assays:
[1] = MTT in vitro cytotoxicity assay, MARC145 cells; assay type: cell-based, African green monkey; settings: MARC145 kidney cells (subclone of MA-104); MARC145 African green monkey kidney cell line; MTT assay; triplicate, three independent experiments
Source text: (§1) Pharmacological evaluation: All target carboxamide derivatives derived from natural arylsulfonamides 10a–r were screened for their potential in vitro cytotoxic effects on A875 (human melanoma), HepG2 (human hepatocellular liver carcinoma), and MARC145 (A subclone of African green monkey kidney cell line MA-104) cell lines using the standard MTT assay, with 5-FU (5-fluorouracil) as a positive control. The IC50 value represents the drug concentration required to inhibit cell growth by 50%.
(§2) Bioassays: The in vitro cytotoxicity of the novel carbazole derivatives against human melanoma (A875), human hepatocellular liver carcinoma (HepG2), and a subclone of African green monkey kidney cell line MA-104 (MARC145) cell lines was evaluated using the MTT assay. All data were analyzed with SPSS software, and the 50% inhibitory concentrations (IC50) of each compound for the different cell lines were determined. All assays were performed in triplicate on three independent experiments.

[2] = MTT in vitro cytotoxicity assay, A875 cells; assay type: cell-based; settings: A875 melanoma cells, A875 human melanoma cell line, triplicate, three independent experiments
Source text: as §1, §2

[3] = MTT in vitro cytotoxicity assay, HepG2 cells; assay type: cell-based, human; settings: HepG2 hepatocellular liver carcinoma cells; HepG2 human hepatocellular liver carcinoma cell line; MTT assay; triplicate, three independent experiments
Source text: as §1, §2

[4] = tested on: MARC145 (a subclone of African green monkey kidney cell line MA-104); assay: MTT in vitro cytotoxicity assay, MARC145 cells; assay type: cell-based; settings: MARC145 cells; concentration 40 µg/mL; preliminary screening (Figure 4)
Source text: as §1, §2

[5] = tested on: HepG2 (human hepatocellular liver carcinoma) cell line; assay: MTT in vitro cytotoxicity assay, HepG2 cells; assay type: cell-based; settings: HepG2 cells; concentration 40 µg/mL; preliminary screening (Figure 4)
Source text: as §1, §2

## O=c1[nH]cc(F)c(=O)[nH]1 [5-FU, 5-fluorouracil, reference compound]
[1]
  IC50: 13.1 ± 1.32 µg/mL (≈ 100 µM)
[2]
  IC50: 11.8 ± 2.03 µg/mL (≈ 90.4 µM)
[3]
  IC50: 15.1 ± 1.06 µg/mL (≈ 116 µM)

## O=C(Nc1ccc(S(=O)(=O)Nc2ccccc2-c2ccccc2)cc1)c1ccccc1C(F)(F)F [10a, N-(4-(N-([1,1′-Biphenyl]-2-yl)sulfamoyl)phenyl)-2-(trifluoromethyl)benzamide]
[1]
  IC50: 13.2 ± 2.49 µg/mL (≈ 26.5 µM)
[2]
  IC50: > 40 µg/mL
[3]
  IC50: 22.1 ± 3.99 µg/mL (≈ 44.4 µM)

## O=C(Nc1ccc(S(=O)(=O)Nc2ccccc2Oc2ccccc2)cc1)c1ccccc1C(F)(F)F [10b, N-(4-(N-(2-Phenoxyphenyl)sulfamoyl)phenyl)-2-(trifluoromethyl)benzamide]
[1]
  IC50: > 40 µg/mL
[2]
  IC50: > 40 µg/mL
[3]
  IC50: > 40 µg/mL

## Cc1onc(NS(=O)(=O)c2ccc(NC(=O)c3ccccc3C(F)(F)F)cc2)c1C [10c, N-(4-(N-(4,5-Dimethylisoxazol-3-yl)sulfamoyl)phenyl)-2-(trifluoromethyl)benzamide]
[1]
  IC50: > 40 µg/mL
[2]
  IC50: > 40 µg/mL
[3]
  IC50: > 40 µg/mL
other
  melting point: 183 to 184 °C

## O=C(Nc1ccc(S(=O)(=O)Nc2ccccc2C(F)(F)F)cc1)c1ccccc1C(F)(F)F [10d, 2-(Trifluoromethyl)-N-(4-(N-(2-(trifluoromethyl)phenyl)sulfamoyl)phenyl)benzamide]
[1]
  IC50: 24.9 ± 4.45 µg/mL (≈ 51 µM)
[2]
  IC50: > 40 µg/mL
[3]
  IC50: 33.1 ± 2.13 µg/mL (≈ 67.7 µM)

## O=C(Nc1ccc(S(=O)(=O)Nc2ccccc2-c2ccccc2)cc1)c1cc(Br)nn1-c1ncccc1Cl [10e, N-(4-(N-([1,1′-Biphenyl]-2-yl)sulfamoyl)phenyl)-3-bromo-1-(3-chloropyridin-2-yl)-1H-pyrazole-5-carboxamide]
[1]
  IC50: > 40 µg/mL
[2]
  IC50: > 40 µg/mL
[3]
  IC50: > 40 µg/mL
other
  melting point: 156 to 157 °C

## O=C(Nc1ccc(S(=O)(=O)Nc2ccccc2Oc2ccccc2)cc1)c1cc(Br)nn1-c1ncccc1Cl [10f, 3-Bromo-1-(3-chloropyridin-2-yl)-N-(4-(N-(2-phenoxyphenyl)sulfamoyl)phenyl)-1H-pyrazole-5-carboxamide]
[1]
  IC50: 11.8 ± 2.93 µg/mL (≈ 18.9 µM)
[2]
  IC50: > 40 µg/mL
[3]
  IC50: > 40 µg/mL
other
  melting point: 177 to 178 °C

## Cc1onc(NS(=O)(=O)c2ccc(NC(=O)c3cc(Br)nn3-c3ncccc3Cl)cc2)c1C [10g, 3-Bromo-1-(3-chloropyridin-2-yl)-N-(4-(N-(4,5-dimethylisoxazol-3-yl)sulfamoyl)phenyl)-1H-pyrazole-5-carboxmide]
[1]
  IC50: > 40 µg/mL
[2]
  IC50: > 40 µg/mL
[3]
  IC50: > 40 µg/mL
other
  melting point: 171 to 172 °C

## O=C(Nc1ccc(S(=O)(=O)Nc2ccccc2C(F)(F)F)cc1)c1cc(Br)nn1-c1ncccc1Cl [10h, 3-Bromo-1-(3-chloropyridin-2-yl)-N-(4-(N-(2-(trifluoromethyl)phenyl)sulfamoyl)phenyl)-1H-pyrazole-5-carboxamide]
[1]
  IC50: 6.75 ± 0.89 µg/mL (≈ 11.2 µM)
[2]
  IC50: 16.8 ± 1.14 µg/mL (≈ 27.9 µM)
[3]
  IC50: 14.4 ± 1.89 µg/mL (≈ 23.9 µM)
other
  melting point: 181 to 182 °C

## Cc1c(C(=O)Nc2ccc(S(=O)(=O)Nc3ccccc3-c3ccccc3)cc2)cccc1-c1ccccc1 [10i, N-(4-(N-([1,1′-Biphenyl]-2-yl)sulfamoyl)phenyl)-2-methyl-[1,1′-biphenyl]-3-carboxamide]
[1]
  IC50: > 40 µg/mL
[2]
  IC50: > 40 µg/mL
[3]
  IC50: > 40 µg/mL

## Cc1c(C(=O)Nc2ccc(S(=O)(=O)Nc3ccccc3Oc3ccccc3)cc2)cccc1-c1ccccc1 [10j, 2-Methyl-N-(4-(N-(2-phenoxyphenyl)sulfamoyl)phenyl)-[1,1′-biphenyl]-3-carboxamide]
[1]
  IC50: > 40 µg/mL
[2]
  IC50: > 40 µg/mL
[3]
  IC50: > 40 µg/mL

## Cc1onc(NS(=O)(=O)c2ccc(NC(=O)c3cccc(-c4ccccc4)c3C)cc2)c1C [10k, N-(4-(N-(4,5-Dimethylisoxazol-3-yl)sulfamoyl)phenyl)-2-methyl-[1,1′-biphenyl]-3-carboxamide]
[1]
  IC50: > 40 µg/mL
[2]
  IC50: > 40 µg/mL
[3]
  IC50: 34.7 ± 2.94 µg/mL (≈ 75.2 µM)
other
  melting point: 156 to 157 °C

## Cc1c(C(=O)Nc2ccc(S(=O)(=O)Nc3ccccc3C(F)(F)F)cc2)cccc1-c1ccccc1 [10l, 2-Methyl-N-(4-(N-(2-(trifluoromethyl)phenyl)sulfamoyl)phenyl)-[1,1′-biphenyl]-3-carboxamide]
[1]
  IC50: 5.62 ± 0.98 µg/mL (≈ 11 µM)
[4]
  Inhibitory activity at 40 µg/mL compared with control 5-FU: significantly higher activities compared with the control
[2]
  IC50: 10.8 ± 2.28 µg/mL (≈ 21.1 µM)
[5]
  Inhibitory activity at 40 µg/mL compared with control 5-FU: significantly higher activities compared with the control
[3]
  IC50: 9.03 ± 1.49 µg/mL (≈ 17.7 µM)

## O=C(Nc1ccc(S(=O)(=O)Nc2ccccc2-c2ccccc2)cc1)c1ccccc1-c1ccc(C(F)(F)F)cc1 [10m, N-(4-(N-([1,1′-Biphenyl]-2-yl)sulfamoyl)phenyl)-4′-(trifluoromethyl)-[1,1′-biphenyl]-2-carboxamide]
[1]
  IC50: > 40 µg/mL
[2]
  IC50: > 40 µg/mL
[3]
  IC50: > 40 µg/mL
other
  melting point: 163 to 164 °C

## O=C(Nc1ccc(S(=O)(=O)Nc2ccccc2Oc2ccccc2)cc1)c1ccccc1-c1ccc(C(F)(F)F)cc1 [10n, N-(4-(N-(2-Phenoxyphenyl)sulfamoyl)phenyl)-4′-(trifluoromethyl)-[1,1′-biphenyl]-2-carboxamide]
[1]
  IC50: 22.6 ± 2.78 µg/mL (≈ 38.3 µM)
[2]
  IC50: > 40 µg/mL
[3]
  IC50: > 40 µg/mL
other
  melting point: 173 to 174 °C

## Cc1onc(NS(=O)(=O)c2ccc(NC(=O)c3ccccc3-c3ccc(C(F)(F)F)cc3)cc2)c1C [10o, N-(4-(N-(4,5-Dimethylisoxazol-3-yl)sulfamoyl)phenyl)-4′-(trifluoromethyl)-[1,1′-biphenyl]-2-carboxamide]
[1]
  IC50: > 40 µg/mL
[2]
  IC50: > 40 µg/mL
[3]
  IC50: > 40 µg/mL
other
  melting point: 199 to 200 °C

## O=C(Nc1ccc(S(=O)(=O)Nc2ccccc2C(F)(F)F)cc1)c1ccccc1-c1ccc(C(F)(F)F)cc1 [10p, 4′-(Trifluoromethyl)-N-(4-(N-(2-(trifluoromethyl)phenyl)sulfamoyl)phenyl)-[1,1′-biphenyl]-2-carboxamide]
[1]
  IC50: 8.5 ± 2.55 µg/mL (≈ 15.1 µM)
[4]
  Inhibitory activity at 40 µg/mL compared with control 5-FU: significantly higher activities compared with the control
[2]
  IC50: 20.4 ± 3.99 µg/mL (≈ 36.2 µM)
[5]
  Inhibitory activity at 40 µg/mL compared with control 5-FU: significantly higher activities compared with the control
[3]
  IC50: 9.6 ± 0.88 µg/mL (≈ 17 µM)

## CC(C(=O)Nc1ccc(S(=O)(=O)Nc2ccccc2C(F)(F)F)cc1)c1ccc2c(c1)[nH]c1ccc(Cl)cc12 (stereo not drawn) [10q, 2-(6-Chloro-9H-carbazol-2-yl)-N-(4-(N-(2-(trifluoromethyl)phenyl)sulfamoyl)phenyl)propanamide]
[1]
  IC50: 2.95 ± 0.78 µg/mL (≈ 5.16 µM)
[4]
  Inhibitory activity at 40 µg/mL compared with control 5-FU: significantly higher activities compared with the control
[2]
  IC50: 4.19 ± 0.78 µg/mL (≈ 7.33 µM)
[5]
  Inhibitory activity at 40 µg/mL compared with control 5-FU: significantly higher activities compared with the control
[3]
  IC50: 3.55 ± 0.63 µg/mL (≈ 6.21 µM)
other
  melting point: 159 to 160 °C

## CC(C(=O)Nc1ccc(S(=O)(=O)Nc2ccccc2Oc2ccccc2)cc1)c1ccc2c(c1)[nH]c1ccc(Cl)cc12 (stereo not drawn) [10r, 2-(6-Chloro-9H-carbazol-2-yl)-N-(4-(N-(2-phenoxyphenyl)sulfamoyl)phenyl)propanamide]
[1]
  IC50: 5.96 ± 1.33 µg/mL (≈ 10 µM)
[4]
  Inhibitory activity at 40 µg/mL compared with control 5-FU: significantly higher activities compared with the control
[2]
  IC50: 15.2 ± 2.4 µg/mL (≈ 25.4 µM)
[5]
  Inhibitory activity at 40 µg/mL compared with control 5-FU: significantly higher activities compared with the control
[3]
  IC50: 8.84 ± 1.68 µg/mL (≈ 14.8 µM)
other
  melting point: 166 to 167 °C

## O=C(O)c1ccccc1NS(=O)(=O)c1ccc(-c2ccccc2)cc1 [NC1, 2-([1,1′-Biphenyl]-4-sulfonamido)benzoic acid]
[1]
  IC50: 25.8 ± 10.4 µg/mL (≈ 73 µM)
[2]
  IC50: 27.2 ± 5.39 µg/mL (≈ 76.9 µM)
other
  melting point: 205 to 207 °C

## COC(=O)c1ccccc1NC(=O)c1ccccc1NS(=O)(=O)c1ccc(-c2ccccc2)cc1 [NC2, Methyl 2-(2-([1,1′-biphenyl]-4-sulfonamido)benzamido)benzoate]
[1]
  IC50: > 40 µg/mL
[2]
  IC50: > 40 µg/mL
